Assay results from ChEMBL document CHEMBL1201862, “PubChem BioAssay data set” (2004).
Structures can show the parent of a compound that is named as a salt.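 Cells were grown in 96-well plates and exposed to each compound for 48 hours at five concentrations; endpoints were interpolated linearly between bracketing concentrations, or set to the highest concentration if not reached. The concentration for 50% growth inhibition is given as GI50.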 Active and inactive are the calls of the source. Rule as the data show it: active = GI50 up to about 1.1 µM and inactive = higher.

Experiments:
Assay in all cases: NCI anticancer screen, dose series, 48 h
DMS-273 = tested on: DMS-273
KM-20L2 = tested on: KM-20L2
SNB-78 = tested on: SNB-78
DLD-1 = tested on: DLD-1
XF498 = tested on: XF498
LXFL 529 = tested on: LXFL 529
HOP-18 = tested on: HOP-18
DMS-114 = tested on: DMS-114
RXF 631 = tested on: RXF 631

Measured: GI50

O=C1CSC(/C(=C\c2ccc(Cl)cc2)c2nc3ccccc3[nH]2)=N1
inactive: DMS-273 21 µM | KM-20L2 31 µM | SNB-78 41.3 µM | DLD-1 16.3 µM | XF498 1.36 µM | LXFL 529 20.8 µM

CCc1cccc(C(C)C)c1N1C(=O)C(=O)C(c2nc3ccccc3s2)C(=O)C1=O
inactive: DMS-273 > 45.3 µM | HOP-18 > 50 µM | KM-20L2 48.4 µM | SNB-78 > 50 µM | DLD-1 20.5 µM | DMS-114 29.6 µM | XF498 > 50 µM | LXFL 529 28.9 µM

Cc1cc(Cl)ccc1NC(=O)CC1SC(NC(=O)c2ccccc2Cl)=NC1=O (centres undefined)
inactive: DMS-273 18.9 µM | KM-20L2 28.6 µM | SNB-78 21.6 µM | DLD-1 19.1 µM | DMS-114 20.4 µM | XF498 14.8 µM | LXFL 529 18 µM

Cc1cn2cc(-c3ccncc3)nc2s1
inactive: RXF 631 > 100 µM | DMS-273 > 100 µM | HOP-18 > 100 µM | KM-20L2 > 100 µM | SNB-78 > 100 µM | DLD-1 > 100 µM | DMS-114 > 91.4 µM | XF498 > 100 µM | LXFL 529 > 100 µM

Cc1ccc(NC(=O)CSc2nnc(Cc3ccccc3)o2)c(C)c1
inactive: DMS-273 > 100 µM | HOP-18 > 100 µM | KM-20L2 > 100 µM | SNB-78 > 100 µM | DMS-114 > 100 µM | XF498 > 100 µM | LXFL 529 > 100 µM

c1ccc(P(=Nc2ccccc2N=P(c2ccccc2)(c2ccccc2)c2ccccc2)(c2ccccc2)c2ccccc2)cc1
active: DMS-273 0.309 µM | HOP-18 0.172 µM | SNB-78 0.489 µM | DMS-114 0.405 µM | XF498 0.208 µM | LXFL 529 0.337 µM
inactive: RXF 631 1.34 µM | KM-20L2 1.38 µM | DLD-1 1.47 µM

O=C(N/C(=C\c1cc(Cl)ccc1Cl)c1nc2c(O)nc(S)nc2[nH]1)c1ccccc1
inactive: RXF 631 20.4 µM | KM-20L2 41.4 µM | SNB-78 55.3 µM | DLD-1 15.2 µM | DMS-114 25.2 µM | XF498 > 48.6 µM | LXFL 529 15.6 µM

O=C(/C=C/c1ccc(O)cc1)c1cc(Cl)ccc1O
inactive: HOP-18 > 100 µM | KM-20L2 > 100 µM | SNB-78 29.9 µM | DLD-1 43.6 µM | DMS-114 23.3 µM | XF498 23.7 µM | LXFL 529 42.5 µM

Clc1ccc(C(c2ccccc2Cl)C(Cl)Cl)cc1 (centres undefined) [MITOTANE]
inactive: RXF 631 17.9 µM | DMS-273 18.5 µM | HOP-18 12.5 µM | KM-20L2 16.9 µM | SNB-78 20.7 µM | DLD-1 19.5 µM | DMS-114 18.5 µM | XF498 15.7 µM | LXFL 529 20.9 µM

COC(=O)CC1(O)C(=O)OCc2c1cc1n(c2=O)Cc2c-1nc1ccccc1c2OC (centres undefined)
inactive: RXF 631 1.63 µM | KM-20L2 1.95 µM | SNB-78 26 µM | DLD-1 27.4 µM | XF498 13.3 µM | LXFL 529 23.2 µM
active: DMS-273 0.042 µM | HOP-18 0.522 µM | DMS-114 0.164 µM

COC1C(O)CC(OC2CC(OC3CC(O[C@@H]4C(=O)c5c(cc6cc(OC7CC(OC8CC(O)C(O)C(C)O8)C(O)C(C)O7)c(C)c(O)c6c5O)C[C@H]4[C@H](OC)C(=O)[C@@H](O)[C@@H](C)O)OC(C)C3O)OC(C)C2O)OC1C (some centres undefined)
active: DMS-273 < 0.0168 µM | HOP-18 0.0211 µM | KM-20L2 0.0223 µM | SNB-78 < 0.01 µM | DLD-1 0.177 µM | DMS-114 0.0272 µM | XF498 < 0.01 µM | LXFL 529 0.0129 µM

O=C(Nc1ccc(Sc2ccc(/N=N/c3c(O)c(S(=O)(=O)O)cc4cc(S(=O)(=O)O)ccc34)cc2)cc1)c1ccc(/N=N/c2c(O)c(S(=O)(=O)O)cc3cc(S(=O)(=O)O)ccc23)cc1
inactive: DMS-273 15.1 µM | HOP-18 23 µM | KM-20L2 63.5 µM | SNB-78 25.8 µM | DLD-1 51.1 µM | DMS-114 5.42 µM | XF498 36.4 µM | LXFL 529 18.1 µM

Cc1cc(N(CCC#N)CCC#N)ccc1/C=C1N=C(/C=C\c2ccccc2)OC\1=O
inactive: DMS-273 > 100 µM | HOP-18 > 100 µM | KM-20L2 > 100 µM | SNB-78 > 100 µM | DLD-1 > 100 µM | DMS-114 > 100 µM | XF498 > 100 µM | LXFL 529 > 100 µM

O=C1CCC2(c3ccccc3)Nc3ccc(Cl)cc3N12 (centres undefined)
inactive: RXF 631 > 100 µM | KM-20L2 > 100 µM | SNB-78 > 100 µM | DLD-1 > 100 µM | DMS-114 63.5 µM | XF498 > 100 µM | LXFL 529 > 100 µM

COC(=O)C(Cc1cc(OC)c(OC)c(OC)c1)C(=O)OC
inactive: RXF 631 > 320 µM | DMS-273 > 320 µM | KM-20L2 > 320 µM | DLD-1 > 320 µM | DMS-114 > 320 µM | XF498 > 320 µM | LXFL 529 > 320 µM

CC1c2ccccc2Cn2cc3c(c21)C(=O)c1cccc(OP(=O)(O)OCc2ccccc2)c1C3=O (centres undefined)
inactive: RXF 631 > 100 µM | KM-20L2 > 100 µM | DLD-1 > 100 µM | DMS-114 > 100 µM | XF498 34.3 µM | LXFL 529 > 100 µM

O=C(Cc1nc2ccc([N+](=O)[O-])cc2nc1O)C(=O)Nc1ccccc1[N+](=O)[O-]
inactive: DMS-273 > 100 µM | KM-20L2 87.3 µM | DLD-1 > 100 µM | DMS-114 39.5 µM | LXFL 529 > 100 µM

COc1ccc2nc3cc(Cl)ccc3c(Nc3ccccc3-c3ccccc3Nc3c4ccc(Cl)cc4nc4ccc(OC)cc34)c2c1
inactive: RXF 631 > 34.8 µM | DMS-273 20.4 µM | HOP-18 > 100 µM | KM-20L2 19.9 µM | SNB-78 > 100 µM | XF498 > 39.4 µM | LXFL 529 17.1 µM

COC(=O)c1cc(Cl)ccc1NC(=O)c1ccc([N+](=O)[O-])cc1
inactive: RXF 631 17.6 µM | DMS-273 21.6 µM | KM-20L2 21.3 µM | SNB-78 32.6 µM | DLD-1 38.8 µM | DMS-114 33.5 µM | XF498 14.4 µM | LXFL 529 25.8 µM

Oc1ccc(C2Oc3cc(O)cc4c3C2c2cc(O)cc3c2C(c2cc(O)cc5c2C4C(c2ccc(O)cc2)O5)C(c2ccc(O)cc2)O3)cc1 (centres undefined)
inactive: DMS-273 8.07 µM | KM-20L2 13.2 µM | DLD-1 > 25 µM | DMS-114 7.11 µM | XF498 5.51 µM | LXFL 529 5.41 µM

c1ccc2c(c1)nnn1c3cnccc3nc21
inactive: DMS-273 15.9 µM | HOP-18 53.5 µM | KM-20L2 53.1 µM | SNB-78 25.5 µM | DLD-1 27.5 µM | DMS-114 20.2 µM | LXFL 529 31.8 µM

CN(C)CCCN1c2ccccc2Sc2ccc(C(F)(F)F)cc21 [TRIFLUPROMAZINE HYDROCHLORIDE]
inactive: DMS-273 14.7 µM | KM-20L2 11.3 µM | SNB-78 15.7 µM | DLD-1 17.2 µM | DMS-114 18.2 µM | LXFL 529 60 µM

Cc1ccc(NCCO)cc1
inactive: KM-20L2 > 100 µM | SNB-78 > 100 µM | DLD-1 > 100 µM | DMS-114 61.7 µM | XF498 > 100 µM | LXFL 529 > 100 µM

O=C(N/C(=C\c1ccc(/C=C(\NC(=O)c2ccccc2)c2nc3cc([N+](=O)[O-])ccc3[nH]2)cc1)c1nc2cc([N+](=O)[O-])ccc2[nH]1)c1ccccc1
inactive: RXF 631 34.5 µM | DMS-273 51.6 µM | HOP-18 > 100 µM | KM-20L2 37.8 µM | SNB-78 > 100 µM | DLD-1 43.8 µM | DMS-114 18.8 µM | LXFL 529 28.4 µM

Cc1c(C(=O)/C=C/c2ccccc2[N+](=O)[O-])[n+]([O-])c2ccccc2[n+]1[O-]
inactive: RXF 631 4.34 µM | DMS-273 3.61 µM | HOP-18 15.4 µM | KM-20L2 5.61 µM | SNB-78 12.3 µM | DLD-1 3.53 µM | DMS-114 5.55 µM | LXFL 529 4.89 µM

COc1cccc(NC(=O)/C(CC(=O)CC(c2ccccc2)c2c(O)c3ccccc3oc2=O)=N\NC(C)(C)C)c1OC (centres undefined)
inactive: KM-20L2 51.4 µM | SNB-78 > 100 µM | DLD-1 40.6 µM | DMS-114 22.8 µM | LXFL 529 41.3 µM

O=C(C#Cc1ccccc1)NC/C=C/c1ccccc1
inactive: HOP-18 > 100 µM | KM-20L2 44.9 µM | SNB-78 29.9 µM | DLD-1 43.1 µM | DMS-114 46.6 µM | LXFL 529 38.2 µM
